Measurements from patent US6548059B1, “Promotion of proliferation of adult corneal endothelial cells” (The Schepens Eye Research Institute, Inc., priority 1999, dated 2003).
Read-outs that look alike come from different tables or passages of the source.

Legend:
[1] = test system: corneal endothelial cells; conditions: for Avg. % KI67 (+) Cells: 24 hr pre-incubation in mitogen-containing medium, n = 2-3 donor corneas
Description: (§1) Twenty-one human corneas were obtained from donors of about 52-75 years of age (Avg.=65.1 years old). Whole corneas were usually cut in quarters to increase sample size. In some cases, whole corneas were used as controls. Corneal pieces were placed endothelial-side up in individual wells of a 24-well tissue culture plate (Falcon, Lincoln Park, N.J.). Pieces were incubated for about 24 hrs in Medium-199 containing 10% fetal bovine serum (FBS), 10 ng/ml epidermal growth factor (EGF) (Upstate Biotechnologies, Lake Placid, N.Y.), 20 ng/ml fibroblast growth factor(FGF) (pituitary-derived, Biomedical Research Technologies, Stoughton, Mass.), and […] gentamicin to stabilize the endothelium prior to study. Ethylenediamine tetraacetic acid (e.g., di-sodium EDTA.2 H2O) was prepared in Hank's Balanced Salt Solution (HBSS) without calcium chloride, magnesium chloride, or magnesium sulfate: Life Technologies, Grand Island, N.Y.), adjusted to pH7.4, and added to the culture medium at a final concentration of 0.02, 0.2, or 2.0 mg/ml. Corneas were treated with EDTA for 10, 30, or 60 min and then returned to culture medium for up to 96 hrs. Negative controls for EDTA treatment included exposing corneal pieces to all manipulations and incubation conditions, including 1 hour in HBSS, but without EDTA. All corneas were maintained at 37° C. in a 5% carbon dioxide, humidified atmosphere until removal for analysis of cell cycle progression.
Immunolocalization was carried out using the same antibodies and protocols as described previously for ZO-1 (10) and Ki67 (19). Corneal pieces stained for Ki67 were mounted in medium containing propidium iodide (PI: Vector Laboratories, Inc., Burlingame, Calif.) to visualize all nuclei. In some cases, samples were double-stained for both Ki67 and ZO-1. Slides were viewed using a Leica TCS 4D confocal microscope equipped with a Leitz DMRBE laser and SCANware 4.2 software (Leica Lasertechnik, Heidelberg, Germany). Images were collected from the central region of the corneal pieces away from the cut edges using a 16×, 40×, or 100×-oil immersion lens. Laser power and gain controls were adjusted to achieve an optimal range of output signal intensity for each channel. Confocal images were collected and micrographs were printed using Photoshop software v4.0 (Adobe Systems, Inc., San Jose, Calif.). For some micrographs, the printing contrast was adjusted to provide a clearer image.
Fluorescence confocal immunocytochemistry for Ki67 was used to evaluate corneal endothelial cells for their ability to enter and complete the cell cycle (i.e., cell proliferation or mitosis). All nuclei were stained with PI. Positive Ki67 staining patterns indicated the presence of actively cycling cells and also acted as markers for specific phases of the cell cycle. Completion of the cell cycle was determined by observation of mitotic figures stained with Ki67. Three representative confocal micrographs were taken per corneal quarter using a 40×-objective lens. An NIH Image v1.62 software program was used to count total PI-stained nuclei, total Ki67-positive cells, and cells in the G1-phase, S/G2-phase, or M-phase of the cell cycle. Cells were counted in five […] areas of each micrograph (=15 areas counted per corneal piece). Counts were averaged and the percentage of actively cycling cells and of cells in each phase of the cell cycle was calculated. Each study was conducted using corneas from 2-3 different donors. Statistical comparisons were made by a paired Student's t-test using a StatView v4.11 software program (Abacus Concepts, Inc., Berkeley, Calif.). Results reported in Table 1 were expressed as percentage of Ki67-positive cells +/−SD.

[2] = test system: corneal endothelial cell-cell contacts
Description: as §1, with “All corneas were maintained at 37° C. in a 5% carbon dioxide, humidified atmosphere until removal for analysis of cell cycle progression.” left out

O=C(O)CN(CCN(CC(=O)O)CC(=O)O)CC(=O)O [EDTA, ethylenediaminetetraacetic acid]
time to complete the cell cycle after EDTA treatment (mitotic figures) ([1]; 24 hours pre-incubation, 0.2 mg/ml EDTA for 60 min, single donor): approximately 48 hrs | Avg. % KI67 (+) Cells ([1]; EDTA 0.2 mg/ml, 30 minutes): 8.67% | Avg. % KI67 (+) Cells ([1]; EDTA 0.2 mg/ml, 60 minutes): 11.99% | percent of the cells stimulated to proliferate ([1]; EDTA 2.0 mg/ml for 60 minutes, after preincubation in culture medium): 16-18% | Avg. % KI67 (+) Cells ([1]; EDTA 2.0 mg/ml, 30 minutes): 14.28% | Avg. % KI67 (+) Cells ([1]; EDTA 2.0 mg/ml, 60 minutes): 17.18% | percent of the cell population that entered the cell cycle ([1]; intact endothelial monolayer treated with EDTA and mitogens): around 17% | cell cycle progression (Ki67 stained nuclei and mitotic figures) ([1]; pre-incubation in mitogen-containing medium, then EDTA, 48 hour post-incubation): did promote cell cycle progression | proliferation (Ki67 staining) with EDTA alone ([1]; up to 2.0 mg/ml EDTA, no prior or simultaneous growth factor, post-incubated 48 hours in mitogen-containing medium): did not promote proliferation | effect on cell-cell contacts (ZO-1 staining) ([2]; 2.0 mg/ml EDTA for 60 minutes): caused cells to become rounded with only thin cytoplasmic strands connecting adjacent cells | percent of treated cells with interrupted cell-contacts ([2]; corneal endothelial cells exposed to EDTA): at least 15%
